Measured values reported in ChEMBL document CHEMBL1201862, “PubChem BioAssay data set” (2004).
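Five compound concentrations were applied to cells in 96-well plates for 48 hours; endpoints were derived by simple linear interpolation of the resulting dose-response curve. The concentration for 50% growth inhibition is given as GI50.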 The source made the active and inactive calls. Cut-off read from the data, not from the text of the source: active = GI50 up to about 1.1 µM and inactive = higher. Where a SMILES comes first, the peptide text is derived from it. [ ]: non-standard residue; d: D form. The star is where a group is joined. Phe(4-NO2) = N[CH](Cc1ccc([N+](=O)[O-])cc1)C(=O)O; Boc = CC(C)(C)OC(=O)*; OtBu = CC(C)(C)O*

Legend:
Assay in all cases: DTP human tumour cell line panel, 48 h
786-0 = system: 786-0
ACHN = system: ACHN
CCRF-CEM = system: CCRF-CEM
COLO 205 = system: COLO 205
EKVX = system: EKVX
HCT-15 = system: HCT-15
HL-60 = system: HL-60
LOX IMVI = system: LOX IMVI
NCI-H226 = system: NCI-H226
NCI/ADR-RES = system: NCI/ADR-RES
OVCAR-3 = system: OVCAR-3
OVCAR-8 = system: OVCAR-8
RPMI-8226 = system: RPMI-8226
SF-268 = system: SF-268
SK-MEL-28 = system: SK-MEL-28
SK-OV-3 = system: SK-OV-3
SNB-19 = system: SNB-19
SNB-75 = system: SNB-75
SR = system: SR
UO-31 = system: UO-31

SMILES	GI50 (786-0)	GI50 (ACHN)	GI50 (CCRF-CEM)	GI50 (COLO 205)	GI50 (EKVX)	GI50 (HCT-15) [µM]	GI50 (HL-60)	GI50 (LOX IMVI)	GI50 (NCI-H226)	GI50 (NCI/ADR-RES)	GI50 (OVCAR-3)	GI50 (OVCAR-8)	GI50 (RPMI-8226)	GI50 (SF-268)	GI50 (SK-MEL-28)	GI50 (SK-OV-3)	GI50 (SNB-19)	GI50 (SNB-75)	GI50 (SR)	GI50 (UO-31)
O=c1c2cc(S(=O)(=O)Nc3ccccc3Cl)ccc2ncn1NS(=O)(=O)c1ccc(Br)cc1	> 37.5 µM (inactive)	> 37.5 µM (inactive)	> 37.5 µM (inactive)	> 37.5 µM (inactive)	> 37.5 µM (inactive)	> 37.5	> 37.5 µM (inactive)	> 37.5 µM (inactive)	> 37.5 µM (inactive)	> 37.5 µM (inactive)	> 37.5 µM (inactive)	> 37.5 µM (inactive)	> 37.5 µM (inactive)	> 37.5 µM (inactive)	> 37.5 µM (inactive)	> 37.5 µM (inactive)	> 37.5 µM (inactive)	> 37.5 µM (inactive)	> 37.5 µM (inactive)	> 37.5 µM (inactive)
Clc1ccc(C2=CC(c3ccccc3)N3C(=N[C@H]4CCCC[C@@H]43)N2)cc1 (stereo not given in full)	2.79 µM (inactive)	5.24 µM (inactive)	4.94 µM (inactive)	1.77 µM (inactive)	4.47 µM (inactive)	4.08	2.82 µM (inactive)	6.46 µM (inactive)	8.85 µM (inactive)	4.35 µM (inactive)	6.4 µM (inactive)	2.7 µM (inactive)	2.31 µM (inactive)	6.14 µM (inactive)	2.79 µM (inactive)	14.3 µM (inactive)	4.55 µM (inactive)	3.48 µM (inactive)	2.14 µM (inactive)	10.8 µM (inactive)
N=C(N)C1CN(CC=O)C(=O)NC1=O (stereo not given)	> 100 µM (inactive)	> 100 µM (inactive)	> 100 µM (inactive)	> 100 µM (inactive)	> 100 µM (inactive)	> 100	> 100 µM (inactive)	> 100 µM (inactive)	> 100 µM (inactive)	> 100 µM (inactive)	> 100 µM (inactive)	> 100 µM (inactive)	> 100 µM (inactive)	> 100 µM (inactive)	> 100 µM (inactive)	> 100 µM (inactive)	> 100 µM (inactive)	> 100 µM (inactive)	> 100 µM (inactive)	> 100 µM (inactive)
Cn1c(O)c(C(=O)Nc2ccc([N+](=O)[O-])cc2)c(=O)n(C)c1=S	2.67 µM (inactive)	2.48 µM (inactive)	2.38 µM (inactive)	3.31 µM (inactive)	2.9 µM (inactive)	2.13	2.25 µM (inactive)	2.69 µM (inactive)	4.33 µM (inactive)	2.79 µM (inactive)	2.37 µM (inactive)	2.14 µM (inactive)	3.15 µM (inactive)	2.64 µM (inactive)	1.88 µM (inactive)	3.64 µM (inactive)	2.16 µM (inactive)	1.63 µM (inactive)	3.63 µM (inactive)	1.54 µM (inactive)
C=C(C)C1CC/C(C)=C/CCC2(C)OC2CC/C(CO)=C\C1O (stereo not given)	> 100 µM (inactive)	> 100 µM (inactive)	19.1 µM (inactive)	47.6 µM (inactive)	91.4 µM (inactive)	> 100	59.2 µM (inactive)	> 100 µM (inactive)	> 100 µM (inactive)	> 100 µM (inactive)	> 100 µM (inactive)	> 100 µM (inactive)	42.4 µM (inactive)	66.7 µM (inactive)	> 100 µM (inactive)	> 100 µM (inactive)	> 100 µM (inactive)	45.7 µM (inactive)	36.9 µM (inactive)	> 100 µM (inactive)
COc1ccc(/C=N/N=C(\N)NO)c(O)c1	> 10 µM (inactive)	5.96 µM (inactive)	> 10 µM (inactive)	> 10 µM (inactive)	> 10 µM (inactive)	6.24	4.39 µM (inactive)	3.27 µM (inactive)	3.98 µM (inactive)	3.92 µM (inactive)	5.51 µM (inactive)	> 10 µM (inactive)	> 10 µM (inactive)	> 10 µM (inactive)	> 10 µM (inactive)	7.38 µM (inactive)	> 10 µM (inactive)	0.0678 µM (active)	2.81 µM (inactive)	> 10 µM (inactive)
CC1(C)OC(=O)C(C#N)=C1C[n+]1ccccc1	> 10 µM (inactive)	> 10 µM (inactive)	> 10 µM (inactive)	> 10 µM (inactive)	> 10 µM (inactive)	> 10	> 10 µM (inactive)	> 10 µM (inactive)	> 10 µM (inactive)	> 10 µM (inactive)	> 10 µM (inactive)	> 10 µM (inactive)	> 10 µM (inactive)	> 10 µM (inactive)	> 10 µM (inactive)	> 10 µM (inactive)	> 10 µM (inactive)	> 10 µM (inactive)	> 10 µM (inactive)	> 10 µM (inactive)
O=P(O)(O)C(NCC(O)CN1CCOCC1)P(=O)(O)O (stereo not given)	> 100 µM (inactive)	> 100 µM (inactive)	> 100 µM (inactive)	> 100 µM (inactive)	> 100 µM (inactive)	> 100	> 100 µM (inactive)	> 100 µM (inactive)	> 100 µM (inactive)	> 100 µM (inactive)	> 100 µM (inactive)	> 100 µM (inactive)	> 100 µM (inactive)	> 100 µM (inactive)	> 100 µM (inactive)	> 100 µM (inactive)	> 100 µM (inactive)	> 100 µM (inactive)	> 100 µM (inactive)	> 100 µM (inactive)
CC(C)/C(Cl)=N/OC(=O)Nc1ccc(Br)cc1	1.88 µM (inactive)	1.74 µM (inactive)	1.36 µM (inactive)	1.88 µM (inactive)	1.97 µM (inactive)	2.12	2.58 µM (inactive)	1.32 µM (inactive)	16.7 µM (inactive)	13.4 µM (inactive)	4.89 µM (inactive)	14.6 µM (inactive)	1.75 µM (inactive)	17.1 µM (inactive)	3.76 µM (inactive)	16.7 µM (inactive)	20.8 µM (inactive)	18.6 µM (inactive)	1.83 µM (inactive)	11.6 µM (inactive)
COC(=O)C1CCC(=O)N1CN(C(C)=O)c1ccccc1 (stereo not given)	> 100 µM (inactive)	> 100 µM (inactive)	> 100 µM (inactive)	> 100 µM (inactive)	> 100 µM (inactive)	> 100	> 100 µM (inactive)	> 100 µM (inactive)	> 100 µM (inactive)	> 100 µM (inactive)	> 100 µM (inactive)	> 100 µM (inactive)	> 100 µM (inactive)	> 100 µM (inactive)	> 100 µM (inactive)	> 100 µM (inactive)	> 100 µM (inactive)	> 100 µM (inactive)	3.39 µM (inactive)	> 100 µM (inactive)
COC(=O)C(Cc1ccc([N+](=O)[O-])cc1)NC(=O)C(CC(=O)OC(C)(C)C)NC(=O)OC(C)(C)C (stereo not given) (Boc-Asp(OtBu)-[Phe(4-NO2)]-OMe; configuration not given here)	> 100 µM (inactive)	> 100 µM (inactive)	> 100 µM (inactive)	30.2 µM (inactive)	> 100 µM (inactive)	> 100	> 100 µM (inactive)	20.9 µM (inactive)	> 100 µM (inactive)	> 100 µM (inactive)	> 100 µM (inactive)	38.1 µM (inactive)	40 µM (inactive)	> 100 µM (inactive)	25.5 µM (inactive)	> 100 µM (inactive)	> 100 µM (inactive)	55.5 µM (inactive)	21.4 µM (inactive)	14.3 µM (inactive)
CCCCCCCCCCCCCC(=O)O[C@H]1CC[C@H](NC(=O)[C@H](OC)[C@H](O)[C@@H](O)[C@H](O)/C=C/C(C)C)C(=O)NC1 [BENGAMIDE A]	0.00512 µM (active)	0.0592 µM (active)	0.00512 µM (active)	0.00512 µM (active)	0.234 µM (active)	0.299	0.00512 µM (active)	0.00512 µM (active)	0.145 µM (active)	5.18 µM (inactive)	0.0147 µM (active)	0.00828 µM (active)	0.00634 µM (active)	0.00893 µM (active)	< 0.0103 µM (active)	0.149 µM (active)	0.0115 µM (active)	0.0353 µM (active)	0.0316 µM (active)	0.106 µM (active)
